Measurements as given in US20160082082A1, “USE OF THERAPEUTIC PEPTIDES FOR THE TREATMENT AND PREVENTION OF CANCER” (ARIZONA CANCER THERAPEUTICS L.L.C., priority 2008, published 2016).
Values joined by “and” are separate entries in the source; they are usually repeats but may differ in a detail not shown here. Equal entries are not always repeated. Where no end group is shown, it is not given here.

What was measured:
[1] = system: BT-20 breast cancer cells; test: Cellular uptake of labelled peptide (fluorescence microscopy); type: cell-based, human; settings: cells pulsed in vitro
Description: FIGS. 1A-1F. […] FIG. 1A) Human MUC1's cytoplasmic amino acid sequence (MUC1CT; SEQ ID NO: 15), which includes an EGFR/src phosphorylation site (underline; SEQ ID NO: 15, residues 46-49) and β-catenin binding site (double underline; SEQ ID NO: 15, residues 50-59). […] The cells were treated with EGF (30′ EGF, 10 ng/ml) or without (-S, no serum) and protein lysates were generated and separated on an SDS-PAGE. The lysates were immunoblotted (IB) for EGFR (1005) and β-actin (AC-15) FIG. 1D-F MDA-MB-468 cells were treated with EGF (10 ng/ml) and either (FIG. 1D) hPMIP (10 μM), (FIG. 1E) PTD4 (10 μM) or (FIG. 1F) PBS overnight. The cells were fixed, probed for MUC1 (Texas Red) and β-catenin (FITC) and examined on a confocal microscope (400×). Co-localization (arrows) analysis was performed using Image Pro Plus and is designated with white pixels.
BT20 cells were treated for 2 hours with 200 μM hPMIP tagged with FITC and fixed in 4% Paraformaldhyde/PBS. Fixed cells were washed 3 times with 0.02% NaN3/PBS and incubated with Slowfade Gold antifade reagent with DAPI (Invitrogen). Cells were visualized with a fluorescence DMLB Leica compound microscope. […]

[2] = system: MMTV-pyV mT induced mammary gland tumors; test: MMTV-pyV mT transgenic mouse spontaneous breast cancer; type: in vivo, mice; settings: for number of established tumors that completely regressed: PTD4 n=60, PMIP n=70 tumor sites
Description: FIGS. 4A-4D. […] FIG. 4A) MMTV-pyV mT transgenic mice were injected with FITC-msPMIP (50 μg/g body weight), sacrificed four hours later and various tissues visualized using fluorescence microscopy. FITC-msPMIP localization in the mouse mammary gland tumors is shown (2.5× and 8×). FIG. 4B) Mammary gland tumors (>0.5 cm in diameter) were allowed to develop and mice were injected daily (50 μg/g body weight, 21 day treatment, intraperitoneal (i.p.) injection, 1× per day) with either msPMIP (7 mice) or PTD4 (6 mice). At the end of treatment, animals were sacrificed and proteins lysates made of the tumors for later analysis. […] Numbers above data are number of tumors that meet the size criteria over the total potential tumor sites.
MMTV-pyV mT mice (33), obtained from Jackson Laboratories) entered into study upon the development of tumors that measured ≧0.5 cm in at least one diameter. Only mice greater than seven weeks of age were included in the study and mice that developed fluid cysts were excluded. Animals were injected i.p. with 50 μg/g body weight of msPMIP or PTD4 once daily for 21 days. Each of ten mammary glands were measured using calipers every two days, and measurements were used to determine tumor volume based on the formula a^2×b/2, with a being the smaller diameter and b being the larger diameter. After treatment for 21 days, mice were sacrificed by CO2 inhalation and tissues resected. Several msPMIP treated mice were injected with FITC-msPMIP (50 μg/g body weight) one or four hours prior to sacrifice and intact tissues were visualized using a fluorescence MZFLIII Leica dissection microscope.

[3] = system: MDA-MB-231 breast cancer cells implanted into the mammary fat pad of scid mice; test: Human breast tumor xenograft in mammary fat pad; type: in vivo
Description: FIGS. 3A-3E. […] FIG. 3A) MDA-MB-231 cells in Matrigel were injected into the mammary fat pad of scid mice, and daily peptide treatment (50 μg/g body weight of hPMIP or PTD4) began when tumors reached 100 mm^3 (PTD4 and hPMIP n=8) and primary tumor growth was assessed (*, p=0.028). FIG. 3B) After the end of treatment, the amount of time the tumors took to progress to 1000 mm^3 was measured (ANOVA, **, p=0.03). […] FIG. 3D) MDA-MB-231 cells in Matrigel were injected into the mammary fat pad of scid mice, and daily peptide treatment (50 μg/g of hPMIP or PTD4) began when tumors reached 500 mm^3 (PTD4 n=4 and hPMIP n=6) and primary tumor growth was assessed. FIG. 3E) Following 21 days of treatment the tumors were resected immediately and tumor regrowth at the primary site and spread to secondary mammary glands was monitored (PTD4 n=4 and hPMIP n=4). Error bars represent standard error.
Immunocompromised (severe combined immune deficiency (scid)) mice (Taconic, Rockville, Md.) were tested for the presence of serum IgG and found to be <20 μg/ml IgG. Female mice (four to six weeks old) were injected with 1×10^7 cells embedded in Matri-gel (BD Biosciences) into the mammary fat pad and allowed to grow to either 100 mm^3 or 500 mm^3, based on the formula a^2×b/2 where a is the smaller diameter and b is the larger diameter. Mice were injected i.p. with 50 μg/g body weight of either PMIP or PTD4 control peptide for 21 days and measured with calipers every two days. Either at the end of 21 days, or after the tumor had reached 800 mm^3, tumors were resected by injecting the mice with buprenorphine (2.5 mg/kg body weight, Infusion Solutions, Totowa, N.J.) at least one hour prior to resection and anesthetizing the mice with isoflurane (Abbott, Abbott Park, Ill.). Following surgery, mice were treated with buprenorphine (2.5 mg/kg body weight) 8 and 16 hrs post-surgery. Animals were then followed for 10 days to examine regrowth at the primary tumor site or at secondary mammary glands, then sacrificed.

MDA-MB-231 cells = test: Invasion assay (Transwell into Type I collagen); type: cell-based, human; settings: MDA-MB-231, 50 μM, vs PTD4 or PBS
Description: FIGS. 2A-2C. […] FIG. 2A) BT20 cells were cultured in a 96-well dish (10^4 cells/well) and treated daily for 6 days with either hPMIP (10 μM) or PTD4 (10 μM) in RPMI 1640/1% FBS. An MTT assay was performed to quantify cell number after treatment was complete (***, p<0.0001). Error bars represent standard error. FIG. 2B) MDA-MB-231 and FIG. 2C) BT20 cell lines were treated with either hPMIP (50 μM), PTD4 (50 μM), or PBS overnight, labeled with Calcein AM, allowed to invade through a Transwell (8.0 μM) insert into a Type I collagen gel, and the invaded cells were fluorescently measured. (ANOVA, *p<0.0001, **p<0.0001, #p=0.007, ##p=0.007). Error bars represent standard deviation.
Collagen matrix (0.9 mg/ml Type I Rat tail collagen (BD Biosciences, Billerica, Mass.), 83.0% (v/v) M-199 medium (Life Technologies), and 0.18% NaHCO3 (Fisher, Hampton, N.H.)) was poured into a 24 well plate. Prior to collagen polymerization a […] pore transwell insert (Corning Inc., Corning, N.Y.) was placed on top of the matrix. The polymerized collagen was rehydrated using a chemoattractant (20% FBS/RPMI 1640 with […] EGF). MDA-MB-231 cells were treated with 50 μM of peptide in serum free RPMI 1640 media for 17 hours. […] The number of fluorescently labeled cells that had invaded into the collagen were measured using a Molecular Devices spectrophotometer (Ex:485, Em:538, and Cutoff:530).

[4] = system: MMTV-pyV mT induced mammary gland tumors; test: MMTV-pyV mT transgenic mouse spontaneous breast cancer; type: in vivo; settings: human peptide in MMTV-pyV mT mice
[5] = system: human breast cancer cell line MDA-MB-231; test: Annexin V and cell number quantification on plastic; type: cell-based; settings: MDA-MB-231 grown on plastic
From the text: These cells were chosen as they represent models of high and low MUC1 expression, respectively (data not shown).

MUC1 [6] = test: Immunoblot of xenograft tumor lysates for MUC1; type: in vivo, scid mice (MDA-MB-231 xenograft); settings: MDA-MB-231 xenograft model
Description: (§1) FIGS. 6A-6B. PMIP is associated with reduced Mud 1 expression. FIG. 6A) A representative MMTV-pyV mT msPMIP (P) treated mouse and a PTD4 mouse (C) were each injected 30 minutes prior to sacrifice with epidermal growth factor (1 μg/g body weight) and with peptide. Following sacrifice the tumors were collected and protein lysates were generated. Protein (50 μg) was separated by SDS-PAGE, transferred and immunoblotted for expression of phosphotyrosine (PY99), EGFR (1005), Muc1 (CT2), and β-actin (AC-15). FIG. 6B) Lysates from MDA-MD-231 xenograft tumors (not treated with EGF; described in […]) were similarly analyzed to determine levels of EGFR and MUC1 protein expression. Relative protein levels of Muc1 were measured by densitometry and graphed (Muc1/β-actin, ANOVA, *p=0.014). Molecular weights are shown on the right. IB=immunoblot. White lines through blots indicate same gel and exposure but were non-contiguous.
(§2) To determine if msPMIP blocked interaction between Muc1 and β-catenin, we began by establishing levels of Muc1 protein expression in the tumor lysates. […] While the mechanism of this loss is unknown, it would certainly result in a loss of Muc1-dependent oncogenic signaling.

EGFR = target: T1, EGFR (Mus musculus, UniProt Q01279); test: Immunoblot of tumor lysates after EGF and peptide injection; type: in vivo, MMTV-pyV mT mice; settings: EGF and peptide 30 minutes prior to sacrifice, after 21 day treatment
T1 construct: we generated protein lysates from tumors of MMTV-pyV mT animals injected with EGF and peptide; from tissue; host or cells: mammary gland tumours of MMTV-pyV mT mice
Description: as §1
To determine if msPMIP was affecting EGF-dependent degradation of EGFR, we generated protein lysates from tumors of MMTV-pyV mT animals injected with EGF and peptide 30 minutes prior to animal sacrifice (after a standard 21 day drug treatment).

Muc1 [7] = test: Immunoblot of transgenic tumor lysates for Muc1; type: in vivo, MMTV-pyV mT mice; settings: MMTV-pyV mT model
Description: as §1, §2

FITC-hPMIP: FITC-labeled PTD4 conjugated to MIP peptides (human) (YARAAARQARAPYEKVSAGNGGSSLS; not fully specified (N-terminus); also: FITC label, place not given here)
presence and retention of fluorescent peptide in cells [1]: found to contain the fluorescent peptide and it was retained over time

PTD4: PTD4 protein transduction domain, SEQ ID NO: 16, used as control peptide (YARAAARQARA; synthetic protein translocation domain)
number of tumors sized 100-300 mm^3, end vs beginning of treatment ([2]; 50 μg/g i.p. daily, 21 days): doubled | tumor growth rate ([2]; 50 μg/g i.p. daily, 21 days): 69 mm^3/day | tumors larger than 100 mm^3 (of possible tumor sites) ([2]; 50 μg/g i.p. daily, 21 days): 47% | tumors that grew larger than 500 mm^3 by the end of the study ([2]; 50 μg/g i.p. daily, 21 days): 13% | total tumor growth for all tumor sites ([2]; 50 μg/g i.p. once daily, over 21 days of treatment): 589.5%±283.6% and ~590% | number of established tumors that completely regressed ([2]; 21 day treatment): none | average tumor volume of regrowth / secondary mammary gland tumors after resection ([3]; treatment begun at 500 mm^3, 50 μg/g i.p. 21 days, resection, 10 days follow-up without drug): 760 mm^3

hPMIP: human PMIP, SEQ ID NO: 17: MUC1 mimetic 15 amino acid peptide in tandem with PTD4 protein transduction domain (YARAAARQARAPYEKVSAGNGGSSLS; fusion protein)
invasion into Type I collagen matrix (MDA-MB-231 cells): strongly inhibited cellular invasion | effect on tumor growth [4]: no effect on tumor growth | effect on apoptosis (Annexin V) [5]: no detectable effects | effect on cell growth (cell number) [5]: no detectable effects | primary tumor size vs control ([3]; treatment begun at 100 mm^3, 50 μg/g i.p. 21 days, p=0.028): significant decrease in tumor size | length of time to reach resection size of 800 mm^3 ([3]; treatment begun at 100 mm^3, after end of treatment, p=0.03): significant increase in the length of time | tumor regrowth and spread 10 days after resection ([3]; treatment begun at 100 mm^3, resection at 800 mm^3): substantially decreased | number of regrowth and secondary mammary gland tumors ([3]; treatment begun at 500 mm^3, after resection): found in equal number for both treatment groups

msPMIP: mouse PMIP, SEQ ID NO: 18: mouse Muc1 mimetic peptide in tandem with PTD4 protein transduction domain (YARAAARQARAPYEEVSAGNGSSSLS; fusion protein)
Muc1 protein expression in tumor lysates (MUC1 [6]): induced a loss of Muc1 protein expression | expression of EGFR in tumor lysates (EGFR): striking reduction | phosphotyrosine in tumor lysates (EGFR): striking reduction | Muc1 protein expression in tumor lysates (Muc1 [7]): induced a loss of Muc1 protein expression | number of tumors sized 100-300 mm^3, end vs beginning of treatment ([2]; 50 μg/g i.p. daily, 21 days): remained the same | tumors larger than 100 mm^3 (of possible tumor sites) ([2]; 50 μg/g i.p. daily, 21 days): 27% | tumors that grew larger than 500 mm^3 by the end of the study ([2]; 50 μg/g i.p. daily, 21 days): 1% | number of established tumors that completely regressed ([2]; 21 day treatment): four | tumor initiation (percent of tumor transitions from 0 mm^3 to 100 mm^3) ([2]; during drug treatment, p=0.0045): significant decrease | frank tumors remaining after treatment ([2]; one representative mouse, 21 day treatment): no frank tumors remaining
